Reference: patent US20250032465A1, “METHODS OF TREATING CNS DISORDERS” (HANGZHOU HIGHLIGHTLL PHARMACEUTICAL CO., LTD, priority 2021, published 2025)
pIC50: −log10 of the molar value. Entries after “also recorded” stand apart in the source; their conditions may differ. Where two headings read alike, the source gives them in different places.

What was measured:
BV2 cells [1] = assay: IL-6, TNF and MCP-1 production in LPS-stimulated BV2 cells (CBA assay); format: cell-based; settings: for inhibition at 1.7 µM: Mus musculus, BV-2, LPS-treated BV2 cells
Experimental: This testing was performed to test the ability of compounds to alleviate the injury of HT22 cells induced by LPS activated BV2 cells. The testing was performed according to the following procedure: 1) Microglia BV2 cells were co-cultured on transwell inserts with HT22hippocampal neurons. BV2 cells were stimulated with LPS (200 ng/ml) for 96 h after treatment with a compound of Formula (II) at 1.7 μM. 2) HT22 cells were pre-treated with a compound of Formula (II) at 1.7 μM for 30 min and subsequently stimulated with LPS (200 ng/ml) for 96 h. 3) BV2 cells were treated using LPS. IL-6, TNF and MCP-1 productions were measured in cell supernatants using CBA assay.
In LPS-treated BV2 cells, there was a marked increase in IL-6, TNF and MCP-1 production, when compared to unstimulated cells.

TYK2 = molecular target: T1, TYK2 (Homo sapiens, UniProt P29597); assay: TYK2 cellular ELISA assay using NK92 cells (IL-12 and IL-18 stimulated IFNγ excretion); format: cell-based; settings: IL-12 2 ng/ml, IL-18 5 ng/ml, 24 hours
T1 construct: purchased Reaction Biology Corp, Malvern, PA (contract testing)
Experimental: This testing was performed to test cellular TYK2 activity using IL-12 and IL-18 stimulated IFNγ excretion assay in NK92 cells. The testing was performed according to the following procedure: 1) Replace NK92 cell media containing IL-2 with media not containing IL-2, maintain overnight; 2) Plate NK92 cells to 96-well plate at density of ˜150,000 cell/well; 3) Add different concentrations of test article to wells, maintain in incubator at 37° C. and 5% CO2 for 1 hour; 4) Add IL-12 (final concentration: 2 ng/ml) and IL-18 (final concentration: 5 ng/ml) to stimulate for 24 hours in the above incubator; 5) After 24 hours, centrifuge at 2000 rpm for 5 min, take the supernatant and analyze according to instructions of the ELISA kit. In this assay, compounds of Formulae (II) and (III) had IC50<100 nM.

[2] = Brain penetration in mice; format: in vivo, C57BL/6 mice; settings: male, mouse, 30 mg/kg oral gavage, 4-hour post-dosing
Experimental: This testing was performed to test the ability of compounds to penetrate the blood-brain-barrier in mice. The testing was performed according to the following procedure: 1) for each compound, take 3 male C57BL/6 mice with body weight of 17-18 g, formulate compound using 0.5% HPMC/water suspension at concentration of 3 mg/ml; 2) After fasting overnight, administer compound at 30 mg/kg by oral gavage; 3) Take plasma samples at 1, 2, 4 hours post-dosing; 4) At 4-hour post-dosing, also take brain tissues and cerebrospinal fluid (CSF) fluid; 5) Analyze compound concentration in plasma, brain tissue, and CSF fluid using LC-MS/MS method.

JAK2 = molecular target: T2, JAK2 (Homo sapiens, UniProt O60674); assay: JAK2 biochemical test (33P-ATP filter binding, Reaction Biology); settings: read-out: Inhibition of JAK2 (IC50)
T2 construct: purchased Reaction Biology Corp, Malvern, PA (contract testing)
Experimental: The tests were conducted by Reaction Biology Corp, Malvern, PA (Anastassiadis et al. Nat Biotechnol. 2011; 29(11):1039-45). The step is briefly described as follows, using the basic reaction buffer: 20 mM Hepes (pH 7.5), 10 mM MgCl2, 1 mM EGTA, 0.02% Brij35, 0.02 mg/ml BSA, 0.1 mM Na3VO4, 2 mM DTT and 1% DMSO. The required cofactor was added to each kinase reaction respectively. Each reaction was performed according to the following reaction steps: 1) Preparing the designated substrate in the newly prepared basic reaction buffer; 2) Transferring the required cofactor to the above matrix solution; 3) Transferring the designated kinase to the substrate solution and mixing well slightly; 4) Transferring a compound of Formula (I) in DMSO to the kinase reaction mixture with Acoustic technique (Echo550; nanoliter range), culturing for 20 minutes at room temperature; 5) Introducing ^33P-ATP (specific activity: 10 μCi/μl) to the reaction mixture to trigger a reaction; 6) Culturing at room temperature and conducting a kinase reaction for 2 hours; 7) Plotting the reaction on P81 ion exchange paper; and 8) Testing the kinase activity with a filter binding assay. The results shown in Table 1 indicate that compounds of Formulae (I)-(III) are potent and selective TYK2/JAK1 inhibitors.

MOG35-55-EAE model = assay: MOG35-55 induced experimental autoimmune encephalomyelitis (MOG35-55-EAE) model; format: in vivo, female C57BL/6 mice
Text: MOG-EAE is one of the most common and widely used animal models for multiple sclerosis, which is a chronic inflammatory disease in the central nervous system that is characterized by axon demyelination and degeneration. In this mouse model, animals were immunized with myelin oligodendrocyte glycoprotein (MOG) peptide in Complete Freund's Adjuvant (CFA) firstly and then boosted with Pertussis Toxin. Upon immunization, mice developed chronic inflammation in the central nervous system, which led to axon dysfunction, and associated movement disabilities and paralysis. The disease onset usually starts from Day 10 and lasts for 20-30 days. This model allows specific investigation of the neuroinflammatory signaling pathways and evaluation of the efficacy of novel anti-inflammatory therapies. […] Mortality and observed clinical signs were recorded for individual animals in detail. Body weight and disease activity index (DAI) were measured twice per week after disease induction and then every other day starting from Day 10 to the study end. The DAI was scored according to the scoring criteria: 0=normal; 1=loss of tail tone; 2=loss of tail tone and hind limb weakness; 3=severe weakness in both limbs/single limb paralysis; 4=paralysis of two or more limbs; 5=death. […] The body weights and disease score were measured by using StudyDirector™ software (version 3.1.399.19). […]

BV2 cells [3] = assay: IL-6, TNF and MCP-1 production in LPS-stimulated BV2 cells (CBA assay); format: cell-based; settings: Mus musculus, BV-2, LPS-treated BV2 cells
[4] = read-out: Inhibition of IL-6 production
[5] = read-out: Inhibition of MCP-1 production
[6] = read-out: Inhibition of TNF production

T1 sequence (P29597 whole entry): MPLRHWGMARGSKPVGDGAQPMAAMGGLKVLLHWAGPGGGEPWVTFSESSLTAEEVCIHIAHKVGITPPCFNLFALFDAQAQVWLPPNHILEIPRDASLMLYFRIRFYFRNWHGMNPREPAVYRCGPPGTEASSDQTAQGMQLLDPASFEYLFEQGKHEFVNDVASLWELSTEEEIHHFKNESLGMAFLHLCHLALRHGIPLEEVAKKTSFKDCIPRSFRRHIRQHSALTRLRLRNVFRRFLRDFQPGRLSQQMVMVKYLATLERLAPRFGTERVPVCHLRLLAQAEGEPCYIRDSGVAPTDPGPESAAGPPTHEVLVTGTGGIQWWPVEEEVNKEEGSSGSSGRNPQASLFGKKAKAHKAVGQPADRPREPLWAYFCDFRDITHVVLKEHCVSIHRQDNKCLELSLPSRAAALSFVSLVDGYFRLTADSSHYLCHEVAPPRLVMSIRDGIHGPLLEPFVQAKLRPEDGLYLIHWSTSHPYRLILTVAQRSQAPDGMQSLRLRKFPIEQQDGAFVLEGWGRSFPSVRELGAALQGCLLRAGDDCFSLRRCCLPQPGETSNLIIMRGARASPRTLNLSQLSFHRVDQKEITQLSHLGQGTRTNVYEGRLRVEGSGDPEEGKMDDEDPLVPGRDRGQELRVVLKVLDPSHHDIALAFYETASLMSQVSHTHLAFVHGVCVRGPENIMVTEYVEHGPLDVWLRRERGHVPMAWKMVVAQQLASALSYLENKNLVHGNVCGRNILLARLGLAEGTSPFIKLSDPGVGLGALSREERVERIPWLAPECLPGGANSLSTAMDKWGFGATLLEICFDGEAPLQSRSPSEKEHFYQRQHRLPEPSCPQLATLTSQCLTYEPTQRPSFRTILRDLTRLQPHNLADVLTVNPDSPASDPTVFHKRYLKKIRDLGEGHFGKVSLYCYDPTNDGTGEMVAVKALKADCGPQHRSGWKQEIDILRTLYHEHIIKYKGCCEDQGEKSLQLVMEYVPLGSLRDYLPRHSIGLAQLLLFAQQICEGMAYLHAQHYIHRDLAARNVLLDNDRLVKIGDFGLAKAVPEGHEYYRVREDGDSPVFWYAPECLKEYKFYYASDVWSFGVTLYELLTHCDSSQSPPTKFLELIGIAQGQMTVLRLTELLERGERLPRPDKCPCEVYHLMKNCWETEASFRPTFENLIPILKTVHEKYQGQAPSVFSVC
T2 sequence (O60674 whole entry): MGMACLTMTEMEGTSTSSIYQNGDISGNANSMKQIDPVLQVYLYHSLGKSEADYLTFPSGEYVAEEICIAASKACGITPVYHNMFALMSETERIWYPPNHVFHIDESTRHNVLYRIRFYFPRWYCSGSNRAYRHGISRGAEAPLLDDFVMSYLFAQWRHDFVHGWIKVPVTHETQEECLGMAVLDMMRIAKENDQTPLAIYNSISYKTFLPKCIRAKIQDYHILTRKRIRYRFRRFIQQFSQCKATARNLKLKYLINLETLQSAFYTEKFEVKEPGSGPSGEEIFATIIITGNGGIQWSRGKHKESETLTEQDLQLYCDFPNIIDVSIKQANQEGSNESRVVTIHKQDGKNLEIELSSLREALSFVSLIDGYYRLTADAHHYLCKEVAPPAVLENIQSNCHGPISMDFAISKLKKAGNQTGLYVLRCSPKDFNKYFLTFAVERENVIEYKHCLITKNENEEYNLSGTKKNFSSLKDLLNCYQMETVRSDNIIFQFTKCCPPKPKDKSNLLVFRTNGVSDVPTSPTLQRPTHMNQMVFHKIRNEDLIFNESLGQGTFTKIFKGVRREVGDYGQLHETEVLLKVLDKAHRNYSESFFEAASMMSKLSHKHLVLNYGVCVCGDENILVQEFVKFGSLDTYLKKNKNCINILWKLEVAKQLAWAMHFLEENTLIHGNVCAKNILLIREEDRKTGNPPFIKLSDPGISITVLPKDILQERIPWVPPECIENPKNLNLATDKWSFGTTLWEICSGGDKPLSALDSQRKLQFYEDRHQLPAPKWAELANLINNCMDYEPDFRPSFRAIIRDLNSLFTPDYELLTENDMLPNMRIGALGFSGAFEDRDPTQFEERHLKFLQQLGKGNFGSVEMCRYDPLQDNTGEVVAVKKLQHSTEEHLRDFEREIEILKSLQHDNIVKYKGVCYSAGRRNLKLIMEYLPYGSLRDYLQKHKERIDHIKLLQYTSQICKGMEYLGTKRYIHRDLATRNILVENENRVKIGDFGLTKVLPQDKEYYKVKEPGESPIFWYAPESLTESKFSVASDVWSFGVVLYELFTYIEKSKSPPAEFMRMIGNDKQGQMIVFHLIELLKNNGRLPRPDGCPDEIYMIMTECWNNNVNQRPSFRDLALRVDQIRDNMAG

Cc1nc2cnc3ccoc3c2n1[C@H]1CC[C@H](CC#N)OC1 [Formula (II)]
IL-6, TNF and MCP-1 production (in words) (BV2 cells [1]; LPS-stimulated BV2 cells, pre-treatment): dose-dependently reduced; also recorded: inhibited
inhibition at 1.7 µM (BV2 cells [1]; [4]): 49.1%
inhibition at 1.7 µM (BV2 cells [1]; [5]): 56.9%
inhibition at 1.7 µM (BV2 cells [1]; [6]): 39.9%
pIC50 (TYK2): > 7.00
Kp at 4 h ([2]; C57BL/6, CSF/plasma, read-out: CSF (ng/ml)/ Plasma (ng/ml)): > 0.15
Kp at 4 h ([2]; C57BL/6, brain/plasma, read-out: Brain (ng/ml)/ Plasma (ng/ml)): > 0.3
pIC50 (JAK2): < 7.00
Disease Activity Index (DAI) (MOG35-55-EAE model; 30 mg/kg BID oral gavage from Day 10, vs vehicle, Days 10-26): reduced disease activity; also recorded: lower DAI
Body weight loss (MOG35-55-EAE model; 30 mg/kg BID oral gavage, mice with EAE): significantly reduced body weight loss
inhibition at 5 µM (BV2 cells [3]; [4]): 72.4%
inhibition at 5 µM (BV2 cells [3]; [5]): 83.3%
inhibition at 5 µM (BV2 cells [3]; [6]): 81.2%
inhibition at 15 µM (BV2 cells [3]; [4]): 83.6%
inhibition at 15 µM (BV2 cells [3]; [5]): 111%
inhibition at 15 µM (BV2 cells [3]; [6]): 118%
